One data set has as its system male Sprague-Dawley rats. Nature of the data set: Sedative activity (exploratory behavior). The note with it: intraperitoneally, up to a dose of 1 mg/kg. Format: in vivo, rat. As to the method:
To test sedation, six male Sprague-Dawley rats are given up to 3 mg/kg of the test compound in a saline or DMSO vehicle by intraperitoneal injection (i.p.). Sedation is graded 30 minutes following administration of the drug by monitoring locomotor skills as follows.
The Sprague-Dawley rats are weighed and 1 ml/kg body weight of an appropriate concentration (ie. 3 mg/ml for a final dose of 3 mg/kg) drug solution is injected intraperitoneally. Typically the test compound is formulated in approximately 10 to 50% DMSO. The results are compared to controls that are injected with 1 ml/kg saline or 10 to 50% DMSO. Rat activity is then determined 30 minutes after injection of the drug solution. Rats are placed in a dark covered chamber and a digicom analyzer (Omnitech Electronic) quantitates their exploratory behavior for a five-minute period. The machine records each time the rat interrupts an array of 32 photoelectric beams in the X and Y orientation.

The subject of data set [1] is rats with ligated L5 and L6 spinal nerves. As to the kind of experiment: Chung model of neuropathic pain (tactile allodynia, von Frey hairs). Format: in vivo. Particulars: Rattus norvegicus, 0.5 h, 30 min following drug administration, read-out: % Pain Reversal ± SEM; for inhibition in vivo at 0.01 mg/kg: 10 μg/kg i.p. An excerpt:
A model in accordance with Kim and Chung 1992, Pain […], pp 355-363 (Chung model), for chronic pain (in particular peripheral neuropathy) involves the surgical ligation of the L5 (and optionally the L6) spinal nerves on one side in experimental animals. Rats recovering from the surgery gain weight and display a level of general activity similar to that of normal rats. However, these rats develop abnormalities of the foot, wherein the hindpaw is moderately everted and the toes are held together. More importantly, the hindpaw on the side affected by the surgery appears to become sensitive to pain from low-threshold mechanical stimuli, such as that producing a faint sensation of touch in a human, within about 1 week following surgery. This sensitivity to normally non-painful touch is called “tactile allodynia” and lasts for at least two months. The response includes lifting the affected hindpaw to escape from the stimulus, licking the paw and holding it in the air for many seconds. None of these responses is normally seen in the control group.
Rats are anesthetized before surgery. The surgical site is shaved and prepared either with betadine or Novacaine. Incision is made from the thoracic vertebra Xlll down toward the sacrum. Muscle tissue is separated from the spinal vertebra (left side) at the L4-S2 levels. The L6 vertebra is located and the transverse process is carefully removed with a small rongeur to expose the L4-L6 spinal nerves. The L5 and L6 spinal nerves are isolated and tightly ligated with 6-0 silk thread. The same procedure is done on the right side as a control, except no ligation of the spinal nerves is performed.
A complete hemostasis is confirmed, then the wounds are sutured. A small amount of antibiotic ointment is applied to the incised area, and the rat is transferred to the recovery plastic cage under a regulated heat-temperature lamp. On the day of the experiment, at least seven days after the surgery, typically six rats per test group are administered the test drugs by intraperitoneal (i.p.) injection or oral gavage. For i.p. injection, the compounds are formulated in approximately 10 to 50% DMSO and given in a volume of 1 ml/kg body weight.
Tactile allodynia is measured prior to and 30 minutes after drug administration using von Frey hairs that are a series of fine hairs with incremental differences in stiffness. Rats are placed in a plastic cage with a wire mesh bottom and allowed to acclimate for approximately 30 minutes. The von Frey hairs are applied perpendicularly through the mesh to the mid-plantar region of the rats' hindpaw with sufficient force to cause slight buckling and held for 6-8 seconds. The applied force has been calculated to range from 0.41 to 15.1 grams. If the paw is sharply withdrawn, it is considered a positive response. A normal animal will not respond to stimuli in this range, but a surgically ligated paw will be withdrawn in response to a 1-2 gram hair. The 50% paw withdrawal threshold is determined using the method of Dixon, W. J., Ann. Rev. Pharmacol. Toxicol. 20:441-462 (1980). The post-drug threshold is compared to the pre-drug threshold and the percent reversal of tactile sensitivity is calculated based on a normal threshold of 15.1 grams. The results are expressed in percent (%) MPE, where the MPE value reflects the percentage reversal of pain threshold to that of a normal animal (100%). Table 3 below indicates results of this test with Compounds 1, 7 and 29 of the invention, administered i.p. and in oral doses.

SMILES strings stand for the structures. Where two headings read alike, the source gives them in different places.

On to `S=c1[nH]cc(CC2CC=CC2)[nH]1` [Compound 18, 4-cyclopent-3-enylmethyl-1,3-dihydro-imidazole-2-thione], for which the sedative effect result in the data set on male Sprague-Dawley rats is reported as “no sedative effect”. Moreover, the inhibition in vivo at 0.01 mg/kg in data set [1] (ip) stood at 5 ± 2.5%. The inhibition in vivo at 0.03 mg/kg in data set [1] (ip, 30 μg/kg i.p.) turned out to be 35 ± 5.2%; in data set [1] (po, 30 μg/kg p.o.), 1 ± 2%. The inhibition in vivo at 0.1 mg/kg turned out to be 72 ± 6.6% in data set [1] (ip, 100 μg/kg i.p.) and 68 ± 4.4% in data set [1] (po, 100 μg/kg p.o.). The inhibition in vivo at 0.3 mg/kg turned out to be 71 ± 6.4% in data set [1] (ip, 300 μg/kg i.p.) and 82 ± 5.9% in data set [1] (po, 300 μg/kg p.o.). Further, the inhibition in vivo at 1 mg/kg in data set [1] (po, 1000 μg/kg p.o.) amounted to 82 ± 8.1%.

As for `O=C1c2ccccc2CCC1Cc1c[nH]c(=S)[nH]1` (single isomer, unassigned) [Compound 23, 2-(2-thioxo-2,3-dihydro-1H-imidazol-4-ylmethyl)-3,4-dihydro-2H-naphthalen-1-one], the sedative effect entry with male Sprague-Dawley rats was “no sedative effect”. Besides, the inhibition in vivo at 0.001 mg/kg in data set [1] (ip, 1 μg/kg i.p.) came out at 0.7 ± 0.8%. Moreover, in data set [1] (ip, 3 μg/kg i.p.), the inhibition in vivo at 0.003 mg/kg is 59 ± 5.8%. For the same compound, in data set [1] (ip), the inhibition in vivo at 0.01 mg/kg was 74 ± 6.1%. In data set [1] (ip, 30 μg/kg i.p.), the inhibition in vivo at 0.03 mg/kg worked out at 69 ± 10%.

Source of the values: patent US7323485B2, “4-(substituted cycloalkylmethyl) imidazole-2-thiones, 4-(substituted cycloalkenylmethyl) imidazole-2-thiones, 4-(substituted cycloalkylmethyl) imidazol-2-ones and 4-(substituted cycloalkenylmethyl) imidazol-2-ones and related compounds” (Allergan, Inc., priority 2002, dated 2008).
